From patent publication US20070009575A1, “Novel use of antisecretory factor” (priority 2003, published 2007)

Tested on: freeze-injured brain tissue
Assay type: in vivo, rat
Conditions: 6 days after freezing injury
From the text: The rats were anaesthetized by the inhalation of isofluorane, and had their heads shaved. The skin was cut open in the mid sagittal plane on the skull. The calvarium was exposed on the left side between the bregma and the lambda. The periostium was detached from the bone, which then was rinsed. Thereafter, great care was taken to remove blood and any fluid from the calvarium as that may impair the subsequent procedure. A probe made of brass, having a cylindric 4 mm long end piece with a diameter of 3 mm, was cooled by immersion in a standardized manner in liquid nitrogen. The cooled probe was thereafter applied for 40 s on the calvarium in between the lambda and bregma, 4 mm lateral to the sagittal mid line. The probe was then removed and the skin wound sutured. The application of the freezing probe resulted transiently in that the brain tissue underlying the exposure site turn frozen. It ought to be stressed that the skull was not opened and no fractures or other signs of gross damage induced. The animals moved afterwards without any obvious problems, behaved normally and ingested food and drinking fluid close to as those untreated, after having recovered from the anaesthesia. Rats (body weight 180-350 g at the start of the experiments), male and female, were supplied with standard pelleted food and tap water prior to and after the brain injury. At the day of injury, the rat were anaesthetized and prepared as described in experiment 2. The freezing probe was applied once for 40 seconds. After suturing the skin wound in the skull and recovered from the anaesthesia, the rats were allowed to move freely. All rats received twice daily for 5 days, starting on the day of surgery, an intravenous injection of 1-10 μg per kg body weight of a synthetic peptide, being a fragment of AF, comprising amino acids 36-51, i.e. composed of 16 amino acids. It was dissolved in saline and prepared freshly prior to each injection. There was no intravenous injection of the peptide on the day of sacrifice, day 6. […] Six days after the freezing injury, the rats were sacrificed and fixed by perfusion as described. […] There were no bleedings in or on the brain. […] The penumbra appeared to be affected by minor oedema. […] Irregularly distributed swellings and beadings of axons and dendrites were sparse. […] There was, however, a variation in the extent of the neuroprotection exerted by the injected peptide.

[1] = peptide i.v. 1-10 μg per kg twice daily for 5 days
[2] = peptide i.v. twice daily for 5 days, vs rats of experiment 2

## fragment of AF, comprising amino acids 36-51: synthetic peptide, being a fragment of AF, comprising amino acids 36-51, i.e. composed of 16 amino acids (VCHSKTRSNPENNVGL; listed as Homo sapiens)
[1]
  bleedings in or on the brain: no bleedings
  oedema in the penumbra: minor oedema
  shallow depression of the central parts of the injured area: not marked and in some cases difficult to identify for certain
Peptide i.v. 1-10 μg per kg twice daily for 5 days, vs standard pellets and tap water only
  extent of brain injury on opening the skull bone: less extensive brain injury
Peptide i.v. twice daily for 5 days
  irregularly distributed swellings and beadings of axons and dendrites: sparse
Peptide i.v. twice daily for 5 days, hippocampus
  proliferation of neural stem and progenitor cells in the SGZ: increased proliferation
[2]
  occurrence of damaged cells (light microscopy of stained sections): less extensive occurrence of damaged cells
  residing extravasation of blood (light microscopy): rarely any residing extravasation of blood
Peptide i.v. twice daily for 5 days, vs standard pellets and tap water only
  astrogliosis in the penumbra region: not as extensive and wide-spread
